Assay results: paper PMC10301922, “Anti-Oxidant, Anti-Mutagenic Activity and Safety Evaluation of Antrocin” (Toxics, 2023)
Like-named read-outs stand apart in the source and are kept apart here.

Assays:
CHO-K1 cells = test system: CHO-K1 cells
Description: A chromosomal aberration test was performed to evaluate the potential for antrocin to induce structural chromosomal abnormalities in Chinese hamster ovary cells (CHO-K1 cells). The test followed the protocol in Genetic Toxicology Testing: A Laboratory Manual. CHO-K1 cells were obtained from the Bioresource Collection and Research Center (BCRC), and were cultured in Ham F-12 medium with 10% fetal bovine serum and 0.1% Penicillin–Streptomycin at 5% CO2 in a 37 °C incubator. […] Three experimental conditions were conducted: 3 h with and without S9 (short term), and 19 h without S9 (long term). […] CHO-K1 cells were cultured in 25T flasks, incubated with samples for 3 or 19 h with and without S9, and harvested at the time of 1.5 cell cycle lengths (about 21 h). Two hours before harvesting, 100 μL colcemid (10 μg/mL) was added to disrupt cell mitosis. Collected cells were then treated with 0.6% KCl solution and fixed with acetic acid–methanol (1:3) solution. After fixation, cells were stained with Diff-Quik on a glass slide. A total of 300 cells in metaphase per group were observed, and the number of chromosomal aberrations was recorded. The chromosomal aberration rate (%) was calculated using the following formula: (number of cells with aberrations/total number of cells examined) × 100. A Student’s t-test was used for statistical analysis, and a significant increase (p < 0.05) compared to the negative control indicated a positive response.

ICR male mice = test: In vivo mammalian erythrocyte micronucleus test
Sprague Dawley rats = test: 28-day oral toxicity test: serum biochemistry
[1] = female rats, 7.5 mg/kg oral 28 d
[2] = female rats, 37.5 mg/kg oral 28 d
[3] = male rats, 37.5 mg/kg oral 28 d

Structure (SMILES): C=C1CC[C@H]2C(C)(C)CCC[C@@]23C(=O)OC[C@@H]13 [Antrocin, (-)-Antrocin]
- chromosomal aberration frequency versus negative control (CHO-K1 cells; 25-100 μg/mL, short-term with S9, short-term without S9, long-term exposure): no significant differences
- Frequency of Chromosomal Aberration (%) (CHO-K1 cells; with S9 (3 h), 25 μg/mL): 5.3 ± 1.2%
- Total Aberrations (CHO-K1 cells; with S9 (3 h), 25 μg/mL): 16/300
- Frequency of Chromosomal Aberration (%) (CHO-K1 cells; with S9 (3 h), 50 μg/mL): 6.3 ± 2.1%
- Total Aberrations (CHO-K1 cells; with S9 (3 h), 50 μg/mL): 19/300
- Frequency of Chromosomal Aberration (%) (CHO-K1 cells; with S9 (3 h), 100 μg/mL): 6.3 ± 2.1%
- Total Aberrations (CHO-K1 cells; with S9 (3 h), 100 μg/mL): 19/300
- Frequency of Chromosomal Aberration (%) (CHO-K1 cells; without S9 (3 h), 25 μg/mL): 4.3 ± 3.8%
- Total Aberrations (CHO-K1 cells; without S9 (3 h), 25 μg/mL): 13/300
- Frequency of Chromosomal Aberration (%) (CHO-K1 cells; without S9 (3 h), 50 μg/mL): 4.3 ± 2.9%
- Total Aberrations (CHO-K1 cells; without S9 (3 h), 50 μg/mL): 13/300
- Frequency of Chromosomal Aberration (%) (CHO-K1 cells; without S9 (3 h), 100 μg/mL): 5.3 ± 2.1%
- Total Aberrations (CHO-K1 cells; without S9 (3 h), 100 μg/mL): 16/300
- Frequency of Chromosomal Aberration (%) (CHO-K1 cells; without S9 (19 h), 25 μg/mL): 9.3 ± 1.2%
- Total Aberrations (CHO-K1 cells; without S9 (19 h), 25 μg/mL): 28/300
- Frequency of Chromosomal Aberration (%) (CHO-K1 cells; without S9 (19 h), 50 μg/mL): 10.3 ± 2.5%
- Total Aberrations (CHO-K1 cells; without S9 (19 h), 50 μg/mL): 31/300
- Frequency of Chromosomal Aberration (%) (CHO-K1 cells; without S9 (19 h), 100 μg/mL): 7.3 ± 1.5%
- Total Aberrations (CHO-K1 cells; without S9 (19 h), 100 μg/mL): 22/300
- Mn-RETs/1000RETs (‰) (ICR male mice; 48 h, 100 mg/kg oral gavage): 2.2 ± 0.9 ‰
- RETs/1000RBCs (‰) (ICR male mice; 48 h, 100 mg/kg oral gavage): 20.4 ± 2.4 ‰
- frequencies of micronuclei (ICR male mice; 48 h, 250 mg/kg): 18.8 ± 1.9 ‰
- Mn-RETs/1000RETs (‰) (ICR male mice; 48 h, 250 mg/kg oral gavage): 1.5 ± 0.2 ‰
- RETs/1000RBCs (‰) (ICR male mice; 48 h, 250 mg/kg oral gavage): 18.8 ± 1.9 ‰
- frequencies of micronuclei (ICR male mice; 48 h, […]): 20.8 ± 2.5 ‰
- frequencies of micronuclei (ICR male mice; 72 h, 100 mg/kg): 31.0 ± 6.1 ‰
- Mn-RETs/1000RETs (‰) (ICR male mice; 72 h, 100 mg/kg oral gavage): 3.0 ± 1.0 ‰
- RETs/1000RBCs (‰) (ICR male mice; 72 h, 100 mg/kg oral gavage): 31.0 ± 6.1 ‰
- frequencies of micronuclei (ICR male mice; 72 h, 250 mg/kg): 26.5 ± 4.6 ‰
- Mn-RETs/1000RETs (‰) (ICR male mice; 72 h, 250 mg/kg oral gavage): 2.2 ± 0.5 ‰
- RETs/1000RBCs (‰) (ICR male mice; 72 h, 250 mg/kg oral gavage): 26.5 ± 4.6 ‰
- frequencies of micronuclei (ICR male mice; 72 h, […]): 28.9 ± 5.0 ‰
- frequency of micronuclei versus control (ICR male mice; antrocin-treated groups after 48 or 72 h): no significant changes
- A/G (Sprague Dawley rats; [1]): 1.9 ± 0.2
- ALP (Sprague Dawley rats; [1]): 147.4 ± 27.6 U/L
- ALT (Sprague Dawley rats; [1]): 24.2 ± 1.9 U/L
- AST (Sprague Dawley rats; [1]): 58.0 ± 8.5 U/L
- Albumin (Sprague Dawley rats; [1]): 3.7 ± 0.2 g/dL
- Amylase (Sprague Dawley rats; [1]): 1280.6 ± 111.3 U/L
- BUN (Sprague Dawley rats; [1]): 12.0 ± 1.0 mg/dL
- CK (Sprague Dawley rats; [1]): 100.2 ± 30.8 U/L
- Ca^2+ (Sprague Dawley rats; [1]): 9.9 ± 0.1 mg/dL
- Cholesterol (Sprague Dawley rats; [1]): 51.2 ± 9.8 mg/dL
- Creatinine (Sprague Dawley rats; [1]): 0.4 ± 0.0 mg/dL
- GGT (Sprague Dawley rats; [1]): 1–2 U/L
- Globulin (Sprague Dawley rats; [1]): 1.9 ± 0.1 g/dL
- Glucose (Sprague Dawley rats; [1]): 182.4 ± 42.9 mg/dL
- HDL-C (Sprague Dawley rats; [1]): 16.0 ± 3.4 mg/dL
- K^+ (Sprague Dawley rats; [1]): 5.2 ± 0.2
- LDH (Sprague Dawley rats; [1]): 92.4 ± 73.8 U/L
- Mg^2+ (Sprague Dawley rats; [1]): 2.1 ± 0.1
- Na^+ (Sprague Dawley rats; [1]): 139.2 ± 1.6
- Phosphate (Sprague Dawley rats; [1]): 8.5 ± 1.0 mg/dL
- TB (Sprague Dawley rats; [1]): <0.1 mg/dL
- TG (Sprague Dawley rats; [1]): 32.8 ± 5.2 mg/dL
- TP (Sprague Dawley rats; [1]): 5.6 ± 0.2
- UA (Sprague Dawley rats; [1]): 0.9 ± 0.1 mg/dL
- A/G (Sprague Dawley rats; [2]): 1.7 ± 0.1
- ALP (Sprague Dawley rats; [2]): 116.4 ± 35.7 U/L
- ALT (Sprague Dawley rats; [2]): 32.6 ± 6.2 U/L
- AST (Sprague Dawley rats; [2]): 72.6 ± 7.4 U/L
- Albumin (Sprague Dawley rats; [2]): 3.8 ± 0.2 g/dL
- Amylase (Sprague Dawley rats; [2]): 1240.4 ± 239.9 U/L
- BUN (Sprague Dawley rats; [2]): 11.0 ± 0.7 mg/dL
- CK (Sprague Dawley rats; [2]): 129.8 ± 59.5 U/L
- Ca^2+ (Sprague Dawley rats; [2]): 10.2 ± 0.2 mg/dL
- Cholesterol (Sprague Dawley rats; [2]): 47.0 ± 11.8 mg/dL
- Cl^− (Sprague Dawley rats; [2]): 104.2 ± 1.3
- Creatinine (Sprague Dawley rats; [2]): 0.3 ± 0.1 mg/dL
- GGT (Sprague Dawley rats; [2]): 1–2 U/L
- Globulin (Sprague Dawley rats; [2]): 2.2 ± 0.1 g/dL
- Glucose (Sprague Dawley rats; [2]): 138.2 ± 21.7 mg/dL
- HDL-C (Sprague Dawley rats; [2]): 14.6 ± 3.8 mg/dL
- K^+ (Sprague Dawley rats; [2]): 5.0 ± 0.7
- LDH (Sprague Dawley rats; [2]): 125.4 ± 96.2 U/L
- Mg^2+ (Sprague Dawley rats; [2]): 2.4 ± 0.3
- Na^+ (Sprague Dawley rats; [2]): 142.6 ± 1.1
- Phosphate (Sprague Dawley rats; [2]): 8.5 ± 0.5 mg/dL
- TB (Sprague Dawley rats; [2]): <0.1 mg/dL
- TG (Sprague Dawley rats; [2]): 27.2 ± 8.1 mg/dL
- TP (Sprague Dawley rats; [2]): 6.0 ± 0.3
- UA (Sprague Dawley rats; [2]): 1.3 ± 0.6 mg/dL
- A/G (Sprague Dawley rats; male rats, 7.5 mg/kg oral 28 d): 1.8 ± 0.1
- ALP (Sprague Dawley rats; male rats, 7.5 mg/kg oral 28 d): 238.4 ± 43.9 U/L
- ALT (Sprague Dawley rats; male rats, 7.5 mg/kg oral 28 d): 28.2 ± 3.1 U/L
- AST (Sprague Dawley rats; male rats, 7.5 mg/kg oral 28 d): 61.4 ± 4.3 U/L
- Albumin (Sprague Dawley rats; male rats, 7.5 mg/kg oral 28 d): 3.4 ± 0.1 g/dL
- Amylase (Sprague Dawley rats; male rats, 7.5 mg/kg oral 28 d): 1931.0 ± 241.1 U/L
- BUN (Sprague Dawley rats; male rats, 7.5 mg/kg oral 28 d): 11.2 ± 1.3 mg/dL
- CK (Sprague Dawley rats; male rats, 7.5 mg/kg oral 28 d): 185.6 ± 96.1 U/L
- Ca^2+ (Sprague Dawley rats; male rats, 7.5 mg/kg oral 28 d): 9.7 ± 0.2 mg/dL
- Cholesterol (Sprague Dawley rats; male rats, 7.5 mg/kg oral 28 d): 41.2 ± 6.3 mg/dL
- Creatinine (Sprague Dawley rats; male rats, 7.5 mg/kg oral 28 d): 0.3 ± 0.0 mg/dL
- GGT (Sprague Dawley rats; male rats, 7.5 mg/kg oral 28 d): <1 U/L
- Globulin (Sprague Dawley rats; male rats, 7.5 mg/kg oral 28 d): 1.9 ± 0.1 g/dL
- Glucose (Sprague Dawley rats; male rats, 7.5 mg/kg oral 28 d): 178.0 ± 25.7 mg/dL
- HDL-C (Sprague Dawley rats; male rats, 7.5 mg/kg oral 28 d): 12.8 ± 1.5 mg/dL
- K^+ (Sprague Dawley rats; male rats, 7.5 mg/kg oral 28 d): 6.5 ± 0.3
- LDH (Sprague Dawley rats; male rats, 7.5 mg/kg oral 28 d): 219.6 ± 139.5 U/L
- Mg^2+ (Sprague Dawley rats; male rats, 7.5 mg/kg oral 28 d): 2.0 ± 0.1
- Na^+ (Sprague Dawley rats; male rats, 7.5 mg/kg oral 28 d): 141.8 ± 0.8
- Phosphate (Sprague Dawley rats; male rats, 7.5 mg/kg oral 28 d): 9.1 ± 0.9 mg/dL
- TB (Sprague Dawley rats; male rats, 7.5 mg/kg oral 28 d): <0.1 mg/dL
- TG (Sprague Dawley rats; male rats, 7.5 mg/kg oral 28 d): 33.0 ± 8.1 mg/dL
- TP (Sprague Dawley rats; male rats, 7.5 mg/kg oral 28 d): 5.3 ± 0.2
- UA (Sprague Dawley rats; male rats, 7.5 mg/kg oral 28 d): 1.5 ± 0.1 mg/dL
- A/G (Sprague Dawley rats; [3]): 1.8 ± 0.1
- ALP (Sprague Dawley rats; [3]): 256.8 ± 44.0 U/L
- ALT (Sprague Dawley rats; [3]): 27.6 ± 2.1 U/L
- AST (Sprague Dawley rats; [3]): 60.2 ± 3.3 U/L
- Albumin (Sprague Dawley rats; [3]): 3.5 ± 0.2 g/dL
- Amylase (Sprague Dawley rats; [3]): 2016.4 ± 289.7 U/L
- BUN (Sprague Dawley rats; [3]): 11.6 ± 1.8 mg/dL
- CK (Sprague Dawley rats; [3]): 156.4 ± 31.1 U/L
- Ca^2+ (Sprague Dawley rats; [3]): 9.9 ± 0.4 mg/dL
- Cholesterol (Sprague Dawley rats; [3]): 44.0 ± 2.5 mg/dL
- Cl^− (Sprague Dawley rats; [3]): 104.6 ± 2.1
- Creatinine (Sprague Dawley rats; [3]): 0.3 ± 0.0 mg/dL
- GGT (Sprague Dawley rats; [3]): <1 U/L
- Globulin (Sprague Dawley rats; [3]): 2.0 ± 0.2 g/dL
- Glucose (Sprague Dawley rats; [3]): 178.0 ± 14.5 mg/dL
- HDL-C (Sprague Dawley rats; [3]): 15.2 ± 2.8 mg/dL
- K^+ (Sprague Dawley rats; [3]): 6.4 ± 0.6
- LDH (Sprague Dawley rats; [3]): 109.8 ± 33.5 U/L
- Mg^2+ (Sprague Dawley rats; [3]): 2.1 ± 0.2
- Na^+ (Sprague Dawley rats; [3]): 141.4 ± 2.3
- Phosphate (Sprague Dawley rats; [3]): 9.6 ± 1.6 mg/dL
- TB (Sprague Dawley rats; [3]): <0.1 mg/dL
- TG (Sprague Dawley rats; [3]): 46.2 ± 8.3 mg/dL
- TP (Sprague Dawley rats; [3]): 5.5 ± 0.4
- UA (Sprague Dawley rats; [3]): 1.6 ± 0.3 mg/dL
